# In patent publication US20240360178A1, “MACROCYCLIC IMMUNOMODULATORS” (Bristol-Myers Squibb Company, priority 2021, published 2024):
# pIC50: −log10 of the molar value. Positions of bridges follow the written chain, without caps; N, C: chain ends. Non-standard residues stand in square brackets, D forms with d. Residues, ends and D or L forms follow the SMILES beside them. ξ: configuration not given here. *: point of attachment. Bip(2'-Me) = Cc1ccccc1-c1ccc(C[C@H](N)C(=O)O)cc1; Phe(4-COOH) = N[C@@H](Cc1ccc(C(=O)O)cc1)C(=O)O; Bip = N[C@@H](Cc1ccc(-c2ccccc2)cc1)C(=O)O; Phe(3-CN) = N#Cc1cccc(C[C@H](N)C(=O)O)c1; Phe(3-OMe) = COc1cccc(C[C@H](N)C(=O)O)c1; Phe(2-Cl) = N[C@@H](Cc1ccccc1Cl)C(=O)O; NMeY = CN[C@@H](Cc1ccc(O)cc1)C(=O)O; Ala(cPr) = N[C@@H](CC1CC1)C(=O)O; NMeF = CN[C@@H](Cc1ccccc1)C(=O)O; 4Pal = N[C@@H](Cc1ccncc1)C(=O)O; Cha = N[C@@H](CC1CCCCC1)C(=O)O; Carboxymethyl = O=C(O)C*; NMeA = CN[C@@H](C)C(=O)O; Orn = NCCC[C@H](N)C(=O)O; Dab = NCC[C@H](N)C(=O)O; Dap = NC[C@H](N)C(=O)O; Ac3c = NC1(C(=O)O)CC1; ξV = CC(C)C(N)C(=O)O; Sar = CNCC(=O)O
# Molecular target: T1, human PD-1 (Jurkat-PD-1 cells) / PE-labeled human PD-L1-Ig (Homo sapiens, UniProt Q15116)
# T1 construct: expressed in transfected cells; host or cells: Jurkat cell line over-expressing human PD-1
# Test: Jurkat-PD-1 Cell Binding High-Content Screening Assay (CBA); Jurkat hPD1-PDL1 assay
# Details: Jurkat HPD1-PDL1 IC50, Jurkat cell line over-expressing human PD-1; PE-labeled PD-L1-Ig 20 nM final; compound incubated 2 hours at 37° C.
# How it was run: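 Binding of phycoerythrin-conjugated PD-L1-Ig (20 nM final) to PD-1-overexpressing Jurkat cells was read by high-content imaging. Cells in DMEM/10% FCS were exposed to compound for 2 hours at 37° C before labeled ligand was added.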
# T1 sequence (Q15116 25-288): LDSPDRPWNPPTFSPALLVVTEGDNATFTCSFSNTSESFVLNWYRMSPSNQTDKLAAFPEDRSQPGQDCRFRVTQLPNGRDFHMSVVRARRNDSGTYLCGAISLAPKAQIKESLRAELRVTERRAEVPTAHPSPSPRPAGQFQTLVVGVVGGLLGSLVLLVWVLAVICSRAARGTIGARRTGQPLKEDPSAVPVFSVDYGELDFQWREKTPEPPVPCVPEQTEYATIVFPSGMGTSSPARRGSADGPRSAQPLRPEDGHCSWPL
row,Structure (SMILES),pIC50
1,CC(C)C[C@@H]1NC(=O)[C@H](Cc2c[nH]c3ccccc23)NC(=O)[C@H](CC(=O)O)NC(=O)[C@H](Cc2ccc(O)cc2)NC(=O)[C@H](Cc2ccccc2)NC(=O)CSC[C@@H](C(=O)NCC(N)=O)NC(=O)[C@H](CO)NC(=O)[C@H](C(C)C)NC(=O)[C@H](CC(C)C)NC(=O)[C@H](CC(N)=O)NC(=O)[C@H]2CCCN2C(=O)[C@H](CN)NC(=O)[C@H](C(C)C)NC(=O)[C@H](Cc2ccc(-c3ccccc3)cc2)NC1=O [Example 1406] ({CH2CO}-FYDWL[Bip]V[Dap][dP]NLVSCG-NH2; thioether N-14),6.46

# Same assay, conditions: Jurkat cell line over-expressing human PD-1; PE-labeled PD-L1-Ig 20 nM final; compound incubated 2 hours at 37° C.; read-out: Jurkat HPD1-PDL1 IC50
row,pIC50,Structure (SMILES)
1,7.10,CC(C)C[C@@H]1NC(=O)[C@H](Cc2c[nH]c3ccccc23)NC(=O)[C@H](CC(=O)O)NC(=O)[C@H](Cc2ccc(C(=O)O)cc2)NC(=O)[C@H](Cc2ccc(OCC(=O)O)cc2)NC(=O)CSC[C@@H](C(=O)N[C@@H](C)C(N)=O)NC(=O)[C@H](CO)NC(=O)[C@H](C(C)C)NC(=O)[C@H](CC(C)C)NC(=O)[C@H](CC(N)=O)NC(=O)[C@H]2CCCN2C(=O)[C@H](C)N(C)C(=O)[C@H](C(C)C)NC(=O)[C@H](Cc2ccc(-c3ccccc3)cc2)NC1=O [Example 1430] ({CH2CO}-Y(Carboxymethyl)[Phe(4-COOH)]DWL[Bip]V[NMeA][dP]NLVSCA-NH2; thioether N-14)
2,6.03,CC(C)C[C@@H]1NC(=O)[C@H](Cc2ccccc2Cl)NC(=O)[C@H](CC(=O)O)NC(=O)[C@H](Cc2ccc(O)cc2)NC(=O)[C@H](Cc2ccccc2)NC(=O)CSC[C@@H](C(=O)N[C@@H](C)C(N)=O)NC(=O)[C@H](CO)NC(=O)[C@H](C(C)C)NC(=O)[C@H](CC(C)C)NC(=O)[C@H](CC(N)=O)NC(=O)CN(C)C(=O)[C@H](C)N(C)C(=O)[C@H](C(C)C)NC(=O)[C@H](Cc2ccc(-c3ccccc3)cc2)NC1=O [Example 1170] ({CH2CO}-FYD[Phe(2-Cl)]L[Bip]V[NMeA][Sar]NLVSCA-NH2; thioether N-14)
3,6.39,CC(C)C[C@@H]1NC(=O)[C@H](Cc2c[nH]c3ccccc23)NC(=O)[C@H](CC(=O)O)NC(=O)[C@H](Cc2ccc(O)cc2)NC(=O)[C@H](CC2CCCCC2)NC(=O)CSC[C@@H](C(=O)NCC(N)=O)NC(=O)[C@H](CO)NC(=O)[C@H](C(C)C)NC(=O)[C@H](CC(C)C)NC(=O)[C@H](CC(N)=O)NC(=O)CN(C)C(=O)[C@H](C)N(C)C(=O)[C@H](C(C)C)NC(=O)[C@H](Cc2ccc(-c3ccccc3)cc2)NC1=O [Example 1117] ({CH2CO}-[Cha]YDWL[Bip]V[NMeA][Sar]NLVSCG-NH2; thioether N-14)
4,6.20,CC(C)C[C@@H]1NC(=O)[C@H](Cc2c[nH]c3ccccc23)NC(=O)[C@H](CC(=O)O)NC(=O)[C@H](Cc2ccc(O)cc2)NC(=O)[C@H](Cc2ccccc2)NC(=O)CSC[C@@H](C(=O)N[C@@H](C)C(N)=O)NC(=O)[C@H](CO)NC(=O)[C@H](C(C)C)NC(=O)[C@H](CC2CC2)NC(=O)[C@H](CC(N)=O)NC(=O)CN(C)C(=O)[C@H](C)N(C)C(=O)[C@H](C(C)C)NC(=O)[C@H](Cc2ccc(-c3ccccc3)cc2)NC1=O [Example 1144] ({CH2CO}-FYDWL[Bip]V[NMeA][Sar]N[Ala(cPr)]VSCA-NH2; thioether N-14)
5,6.80,CC(C)C[C@@H]1NC(=O)[C@H](Cc2c[nH]c3ccccc23)NC(=O)[C@H](CC(=O)O)NC(=O)[C@H](Cc2ccncc2)NC(=O)[C@H](Cc2ccccc2)NC(=O)CSC[C@@H](C(=O)N[C@@H](C)C(N)=O)NC(=O)[C@H](CO)NC(=O)[C@H](C(C)C)NC(=O)[C@H](CC(C)C)NC(=O)[C@H](CC(N)=O)NC(=O)CN(C)C(=O)[C@H](C)N(C)C(=O)[C@H](C(C)C)NC(=O)[C@H](Cc2ccc(-c3ccccc3)cc2)NC1=O [Example 1064] ({CH2CO}-F[4Pal]DWL[Bip]V[NMeA][Sar]NLVSCA-NH2; thioether N-14)
6,6.49,CC(C)C1NC(=O)[C@H](Cc2c[nH]c3ccccc23)NC(=O)[C@H](CC(=O)O)NC(=O)[C@H](Cc2ccc(OCC(=O)O)cc2)NC(=O)[C@H](CN)NC(=O)CSC[C@@H](C(=O)N[C@@H](C)C(N)=O)NC(=O)[C@H]([C@@H](C)O)NC(=O)[C@H](C(C)C)NC(=O)[C@H](CC2CCCCC2)NC(=O)[C@H](CCN)NC(=O)[C@H](Cc2ccc(O)cc2)N(C)C(=O)[C@H](CCCN)NC(=O)[C@H](CCC(=O)O)NC(=O)[C@H](Cc2ccc(-c3ccccc3)cc2)NC1=O (stereo partly drawn) [Example 1453] ({CH2CO}-[Dap]Y(Carboxymethyl)DW[ξV][Bip]E[Orn][NMeY][Dab][Cha]VTCA-NH2; thioether N-14)
7,6.51,CC(C)C[C@@H]1NC(=O)[C@H](CCCNC(=N)N)NC(=O)[C@H](Cc2ccccc2)N(C)C(=O)[C@H](C)N(C)C(=O)[C@H](CCCN)NC(=O)[C@H](Cc2ccc(-c3ccccc3)cc2)NC(=O)[C@H](C(C)C)NC(=O)[C@H](Cc2c[nH]c3ccccc23)NC(=O)[C@H](CC(=O)O)NC(=O)[C@H](Cc2ccc(O)cc2)NC(=O)[C@H](Cc2ccccc2)NC(=O)CSC[C@@H](C(=O)N[C@@H](C)C(N)=O)NC(=O)[C@H]([C@@H](C)O)NC(=O)[C@H](C(C)C)NC1=O [Example 1346] ({CH2CO}-FYDWV[Bip][Orn][NMeA][NMeF]RLVTCA-NH2; thioether N-14)
8,6.59,CC(C)C[C@@H]1NC(=O)[C@H](CCCNC(=N)N)NC(=O)[C@H](Cc2ccccc2)N(C)C(=O)[C@H](C)N(C)C(=O)[C@H](CCCNC(=N)N)NC(=O)[C@H](Cc2ccc(-c3ccccc3)cc2)NC(=O)[C@H](C(C)C)NC(=O)[C@H](Cc2c[nH]c3ccccc23)NC(=O)[C@H](CC(=O)O)NC(=O)[C@H](Cc2ccc(O)cc2)NC(=O)[C@H](Cc2ccccc2)NC(=O)CSC[C@@H](C(=O)NCC(N)=O)NC(=O)[C@H](CO)NC(=O)[C@H](C(C)C)NC1=O [Example 1000] ({CH2CO}-FYDWV[Bip]R[NMeA][NMeF]RLVSCG-NH2; thioether N-14)

# Further lines, the compound ahead of its results:
row,Structure (SMILES),pIC50
1,Cc1ccccc1-c1ccc(C[C@@H]2NC(=O)[C@H](CC(C)C)NC(=O)[C@H](Cc3c[nH]c4ccccc34)NC(=O)[C@H](CC(=O)O)NC(=O)[C@H](Cc3ccc(O)cc3)NC(=O)[C@H](Cc3ccccc3)NC(=O)CSC[C@@H](C(=O)N[C@@H](C)C(N)=O)NC(=O)[C@H](CO)NC(=O)[C@H](C(C)C)NC(=O)[C@H](CC(C)C)NC(=O)[C@H](CC(N)=O)NC(=O)CN(C)C(=O)[C@H](C)N(C)C(=O)[C@H](C(C)C)NC2=O)cc1 [Example 1125] ({CH2CO}-FYDWL[Bip(2'-Me)]V[NMeA][Sar]NLVSCA-NH2; thioether N-14),6.33
2,CC(C)C[C@@H]1NC(=O)[C@H](CCN)NC(=O)[C@H](Cc2ccccc2)N(C)C(=O)[C@H](C)N(C)C(=O)[C@H](CCC(=O)O)NC(=O)[C@H](Cc2ccc(-c3ccccc3)cc2)NC(=O)[C@H](C(C)C)NC(=O)[C@H](Cc2c[nH]c3ccccc23)NC(=O)[C@H](CC(=O)O)NC(=O)[C@H](Cc2ccc(O)cc2)NC(=O)[C@H](Cc2ccccc2)NC(=O)CSC[C@@H](C(=O)N[C@@H](C)C(N)=O)NC(=O)[C@H]([C@@H](C)O)NC(=O)[C@H](C(C)C)NC1=O [Example 1342] ({CH2CO}-FYDWV[Bip]E[NMeA][NMeF][Dab]LVTCA-NH2; thioether N-14),7.15
3,CC(C)C[C@@H]1NC(=O)[C@H](CCCCN)NC(=O)[C@H](Cc2ccccc2)N(C)C(=O)[C@H](C)N(C)C(=O)[C@H](CCCNC(=N)N)NC(=O)[C@H](Cc2ccc(-c3ccccc3)cc2)NC(=O)[C@H](C(C)C)NC(=O)[C@H](Cc2c[nH]c3ccccc23)NC(=O)[C@H](CC(=O)O)NC(=O)[C@H](Cc2ccc(O)cc2)NC(=O)[C@H](CCC(N)=O)NC(=O)CSC[C@@H](C(=O)NCC(N)=O)NC(=O)[C@H](CO)NC(=O)[C@H](C(C)C)NC1=O [Example 1313] ({CH2CO}-QYDWV[Bip]R[NMeA][NMeF]KLVSCG-NH2; thioether N-14),6.62
4,COc1cccc(C[C@@H]2NC(=O)[C@H](CC(=O)O)NC(=O)[C@H](Cc3cccc(C#N)c3)NC(=O)[C@H](CN)NC(=O)CSC[C@@H](C(=O)N[C@@H](C)C(N)=O)NC(=O)[C@H](CO)NC(=O)[C@H](C(C)C)NC(=O)[C@H](CC(C)C)NC(=O)[C@H](CC(N)=O)NC(=O)[C@H]3CCCN3C(=O)[C@H](C)N(C)C(=O)[C@H](C(C)C)NC(=O)[C@H](Cc3ccc(-c4ccccc4)cc3)NC(=O)[C@H](CC(C)C)NC2=O)c1 [Example 1393] ({CH2CO}-[Dap][Phe(3-CN)]D[Phe(3-OMe)]L[Bip]V[NMeA][dP]NLVSCA-NH2; thioether N-14),7.70
5,CC(C)C[C@@H]1NC(=O)[C@H](Cc2c[nH]c3ccccc23)NC(=O)[C@H](CC(=O)O)NC(=O)[C@H](Cc2ccc(O)cc2)NC(=O)[C@H](Cc2ccccc2)NC(=O)CSC[C@@H](C(=O)NC2(C(N)=O)CC2)NC(=O)[C@H](CO)NC(=O)[C@H](C(C)C)NC(=O)[C@H](CC(C)C)NC(=O)[C@H](CC(N)=O)NC(=O)CN(C)C(=O)[C@H](C)N(C)C(=O)[C@H](C(C)C)NC(=O)[C@H](Cc2ccc(-c3ccccc3)cc2)NC1=O [Example 1056] ({CH2CO}-FYDWL[Bip]V[NMeA][Sar]NLVSC[Ac3c]-NH2; thioether N-14),6.89
6,CC(C)C1NC(=O)[C@H](Cc2c[nH]c3ccccc23)NC(=O)[C@H](CC(=O)O)NC(=O)[C@H](Cc2ccc(O)cc2)NC(=O)[C@H](CC(N)=O)NC(=O)CSC[C@@H](C(=O)N[C@@H](C)C(N)=O)NC(=O)[C@H]([C@@H](C)O)NC(=O)[C@H](C(C)C)NC(=O)[C@H](CC2CCCCC2)NC(=O)[C@H](CCN)NC(=O)[C@H](Cc2ccccc2)N(C)C(=O)[C@H](CCCN)NC(=O)[C@H](CCC(=O)O)NC(=O)[C@H](Cc2ccc(-c3ccccc3)cc2)NC1=O (stereo partly drawn) [Example 1441] ({CH2CO}-NYDW[ξV][Bip]E[Orn][NMeF][Dab][Cha]VTCA-NH2; thioether N-14),7.22
